# Data from patent publication US4000297A, “N-p-chlorobenzoyl tryptophane, salts and compositions thereof” (priority 1971, dated 1976).
# Counter-ions that a name gives are not always drawn. Like-named read-outs stand apart in the source and are kept apart here.
# Legend:
# Format in all cases: in vivo
# [1] = Acute toxicity (DL50) in the mouse; conditions: in vivo, iv (Table 1), read-out: DL50 value
# Description: *1 DL50 in the mouse mg/kg iv.
# Examples of differences between toxicity (DL50 in
# the mouse) by intravenous administration and oral
# administration in mg/kg. Variation in therapeutic
# [2] = tested on: gastric secretion; test: Anti-secretive activity in the rat by gastric stimulus, oral; conditions: oral (Table 1), read-out: Activity B: anti-secretive activity ED50
# Protocol: *3 Anti-secretive activity in the rat by gastric stimulus, ED50 mg/k
# [3] = tested on: gastric secretion; test: Anti-secretive activity in the rat with lig. pylorus, iv; conditions: read-out: Activity A: anti-secretive activity ED50
# [4] = tested on: gastric secretion; test: Comparison of antisecretive activity, rats with tied pylorus, oral aqueous suspension; conditions: oral
# Protocol: (*)The antisecretive activity is defined as the dose in mg/kg of body
# weight of the animal, which reduces the gastric secretion by 50%. The
# evaluation is effected by considering the decrease in quantity of secrete
# gastric juice as compared with controls. Rats of an average weight of 200
# ± 20 grams are employed of which the lower part of the stomach at the
# level of the pylorus is tied to collect the gastric juice during the
# indicated periods. The preparations are administered orally in the form o
# [5] = rat with lig. pylorus, iv (Table 1)
SMILES,LD50 [1] [mg/kg],ED50 [2] [mg/kg],"ED50 ([3]; Rattus norvegicus, iv) [mg/kg]","ED50 [3, 5] [mg/kg]",LD50 ([1]; iv) [mg/kg],"Antisecretive activity (dose which reduces the gastric secretion by 50%) ([4]; 2.5 hrs, 150 min) [mg/kg]","Antisecretive activity (dose which reduces the gastric secretion by 50%) ([4]; 5 hrs, 300 min) [mg/kg]","Antisecretive activity (dose which reduces the gastric secretion by 50%) ([4]; 10 hrs, 600 min) [mg/kg]"
"Cc1ccc(C(=O)NC(Cc2c[nH]c3ccccc23)C(=O)O)cc1 (racemic) [Ex.23 (CR555), N-p-toluyl-DL-tryptophane]",340,172,204,–,–,–,–,–
"O=C(NC(Cc1c[nH]c2ccccc12)C(=O)O)c1ccccc1Cl (racemic) [Ex.51 (CR618), N-o-chlorobenzoyl-DL-tryptophane]",1400,320,–,345,–,–,–,–
"O=C(NC(Cc1c[nH]c2ccccc12)C(=O)O)OCc1ccc(Cl)cc1 (racemic) [Ex. 4 (CR463), N-p-chloro-carbobenzoxy-DL-tryptophane]",–,130,161,–,217,–,–,–
Nc1ccc(C(=O)N[C@@H](Cc2c[nH]c3ccccc23)C(=O)O)cc1 [CR 504 - Calcium salt],–,–,–,–,–,1480,1865,> 2000
"CCc1ccc(COC(=O)N[C@@H](Cc2c[nH]c3ccccc23)C(=O)O)cc1 [Ex.10 (CR500), N-p-ethyl-carbobenzoxy-L-tryptophane]",–,117,142,–,158,–,–,–
"O=C(N[C@@H](Cc1c[nH]c2ccccc12)C(=O)O)OCc1ccc(C(F)(F)F)cc1 [Ex.11 (CR515), N-p-trifluoromethyl-carbobenzoxy-L-tryptophane]",–,92,112,–,175,–,–,–
"O=C(N[C@@H](Cc1c[nH]c2ccccc12)C(=O)O)OCc1ccc(Cl)cc1Cl [Ex.13 (CR470), N-(2,4-dichloro)-carbobenzoxy-L-tryptophane]",–,97,–,130,170,–,–,–
"O=C(N[C@@H](Cc1c[nH]c2ccccc12)C(=O)O)OCc1c(Cl)cccc1Cl [Ex.14 (CR495), N-(2,6-dichloro)-carbobenzoxy-L-tryptophane]",–,108,–,132,268,–,–,–
"O=C(N[C@@H](Cc1c[nH]c2ccccc12)C(=O)O)OCc1cccc(Cl)c1Cl [Ex.15 (CR499), N-(2,3-dichloro)-carbobenzoxy-L-tryptophane]",–,60,–,100,175,–,–,–
"O=C(N[C@@H](Cc1c[nH]c2ccccc12)C(=O)O)OCc1ccc(Cl)c(Cl)c1 [Ex.16 (CR469), N-(3,4-dichloro)-carbobenzoxy-L-tryptophane]",–,104,137,–,208,–,–,–
"Cc1ccc(COC(=O)N[C@@H](Cc2c[nH]c3ccccc23)C(=O)O)cc1Cl [Ex.17 (CR497), N-(3-chloro-4-methyl)-carbobenzoxy-L-tryptophane]",–,196,231,–,190,–,–,–
"O=C(N[C@@H](Cc1c[nH]c2ccccc12)C(=O)O)c1ccc(Br)cc1 [Ex.19 (CR503), N-p-bromo-benzoyl-L-tryptophane]",360,85,111,–,–,–,–,–
"O=C(N[C@@H](Cc1c[nH]c2ccccc12)C(=O)O)c1ccc(C(F)(F)F)cc1 [Ex.20 (CR505), N-p-trifluoromethyl-benzoyl-L-tryptophane]",210,110,160,–,–,–,–,–
"Cc1ccc(C(=O)N[C@H](Cc2c[nH]c3ccccc23)C(=O)O)cc1 [Ex.22 (CR556), N-p-toluyl-D-tryptophane]",365,190,354,–,–,–,–,–
"N#Cc1ccc(C(=O)N[C@@H](Cc2c[nH]c3ccccc23)C(=O)O)cc1 [Ex.24 (CR512), N-p-cyano-benzoyl-L-tryptophane]",1450,360,500,–,–,–,–,–
"O=C(N[C@@H](Cc1c[nH]c2ccccc12)C(=O)O)c1ccc(F)cc1 [Ex.25 (CR506), N-p-fluoro-benzoyl-L-tryptophane]",655,295,223,–,–,–,–,–
"COc1ccc(C(=O)N[C@@H](Cc2c[nH]c3ccccc23)C(=O)O)cc1 [Ex.26 (CR507), N-p-methoxy-benzoyl-L-tryptophane]",1000,494,–,437,–,–,–,–
"O=C(O)c1ccc(C(=O)N[C@@H](Cc2c[nH]c3ccccc23)C(=O)O)cc1 [Ex.27 (CR508), N-p-carboxy-benzoyl-L-tryptophane]",900,406,–,514,–,–,–,–
"O=C(N[C@@H](Cc1c[nH]c2ccccc12)C(=O)O)c1ccc([N+](=O)[O-])cc1 [Ex.29 (CR502), N-p-nitro-benzoyl-L-tryptophane. C2 H5 OH]",806,270,–,339,–,–,–,–

SMILES,LD50 [1] [mg/kg],ED50 [2] [mg/kg],"ED50 ([3]; Rattus norvegicus, iv) [mg/kg]","ED50 [3, 5] [mg/kg]",LD50 ([1]; iv) [mg/kg],"Antisecretive activity (dose which reduces the gastric secretion by 50%) ([4]; 2.5 hrs, 150 min) [mg/kg]","Antisecretive activity (dose which reduces the gastric secretion by 50%) ([4]; 5 hrs, 300 min) [mg/kg]","Antisecretive activity (dose which reduces the gastric secretion by 50%) ([4]; 10 hrs, 600 min) [mg/kg]"
"O=C(N[C@@H](Cc1c[nH]c2ccccc12)C(=O)O)c1cccc(Cl)c1 [Ex.30 (CR546), N-m-chloro-benzoyl-L-tryptophane]",560,147,210,–,–,–,–,–
"O=C(N[C@@H](Cc1c[nH]c2ccccc12)C(=O)O)OCc1cccc2ccccc12 [Ex.31 (CR514), N-(carbo-alpha-naphthyl-methoxy)-L-tryptophane]",–,94,–,128,160,–,–,–
"CCOC(=O)c1ccc(NC(=O)[C@H](Cc2c[nH]c3ccccc23)NC(=O)OCc2ccccc2)cc1 [Ex.33 (CR401), Ethyl-N-carbobenzoxy-L-tryptophyl-p-aminobenzoate]",–,320,–,470,1000,–,–,–
"O=C(N[C@@H](Cc1c[nH]c2ccccc12)C(=O)Nc1ccc(C(=O)Oc2ccc(Cl)cc2Cl)cc1)OCc1ccccc1 [Ex.34 (CR432), 2,4-Dichlorophenyl-N-carbobenzoxy-L-tryptophyl-p-aminobenzoate]",–,310,–,370,1000,–,–,–
"O=C(N[C@@H](Cc1c[nH]c2ccccc12)C(=O)Nc1ccc(C(=O)Oc2ccccc2)cc1)OCc1ccccc1 [Ex.35 (CR411), Phenyl-N-carbobenzoxy-L-tryptophyl-p-aminobenzoate]",–,460,–,610,1000,–,–,–
"O=C(N[C@@H](Cc1c[nH]c2ccccc12)C(=O)Nc1ccc(C(=O)OCc2ccccc2)cc1)OCc1ccccc1 [Ex.36 (CR430), Benzyl-N-carbobenzoxy-L-tryptophyl-p-aminobenzoate]",–,520,–,690,1000,–,–,–
"CCOC(=O)c1ccc(NC(=O)[C@H](Cc2c[nH]c3ccccc23)NC(=O)c2ccccc2)cc1 [Ex.37 (CR402), Ethyl-N-benzoyl-L-tryptophyl-p-aminobenzoate]",1000,460,–,310,–,–,–,–
"COC(=O)Cc1ccc(NC(=O)[C@H](Cc2c[nH]c3ccccc23)NC(=O)OCc2ccccc2)cc1 [Ex.38 (CR417), Methyl-N-carbobenzoxy-L-tryptophyl-p-aminophenylacetate]",–,300,–,300,1000,–,–,–
"O=C(Cc1ccc(NC(=O)[C@H](Cc2c[nH]c3ccccc23)NC(=O)OCc2ccccc2)cc1)OCc1ccccc1 [Ex.39 (CR419), Benzyl-N-carbobenzoxy-L-tryptophyl-p-aminophenylacetate]",–,350,–,430,1000,–,–,–
"COC(=O)Cc1ccc(NC(=O)[C@H](Cc2c[nH]c3ccccc23)NC(=O)c2ccccc2)cc1 [Ex.40 (CR418), Methyl-N-benzoyl-L-tryptophyl-p-aminophenylacetate]",1000,180,–,290,–,–,–,–
"O=C(O)c1ccc(NC(=O)[C@H](Cc2c[nH]c3ccccc23)NC(=O)c2ccccc2)cc1 [Ex.42 (CR404), N-benzoyl-L-tryptophyl-p-aminobenzoic acid]",500,220,–,284,–,–,–,–
"O=C(N[C@@H](Cc1c[nH]c2ccccc12)C(=O)Nc1ccc(C(=O)O)cc1)OCc1ccccc1 [Ex.43 (CR422), N-Carbobenzoxy-L-tryptophyl-p-aminobenzoic acid]",–,180,–,321,460,–,–,–
"O=C(O)Cc1ccc(NC(=O)[C@H](Cc2c[nH]c3ccccc23)NC(=O)OCc2ccccc2)cc1 [Ex.44 (CR435), N-carbobenzoxy-L-tryptophyl-p-aminophenylacetic acid]",–,210,–,370,980,–,–,–
"O=C(Cc1ccc(Cl)cc1)N[C@@H](Cc1c[nH]c2ccccc12)C(=O)O [Ex.47 (CR584), N-p-chlorophenylacetyl-L-tryptophane]",545,270,–,487,–,–,–,–
"CN(C)CCOC(=O)[C@H](Cc1c[nH]c2ccccc12)NC(=O)OCc1ccc(Cl)cc1 [Ex.48 (CR583), Dimethylaminoester of N-p-chlorocarbobenzoxy-L-trytophane hydrochloride]",–,121,–,170,210,–,–,–
"CCN(CC)CCOC(=O)[C@H](Cc1c[nH]c2ccccc12)NC(=O)c1ccc(C)cc1 [Ex.49 (CR636), Diethylaminoethylester of N-p-toluyl-L-tryptophane oxalate]",320,120,–,160,–,–,–,–
"O=C(N[C@H](Cc1c[nH]c2ccccc12)C(=O)O)c1ccccc1Cl [Ex.52 (CR637), N-o-chlorobenzoyl-D-tryptophane]",1530,390,–,440,–,–,–,–
"O=C(N[C@@H](Cc1c[nH]c2ccccc12)C(=O)O)OCc1cccc(Cl)c1 [Ex. 2 (CR527), N-m-chloro-carbobenzoxy-L-tryptophane]",–,147,176,–,450,–,–,–
